According to patent US20230257419A1, “PHARMACEUTICAL COMPOSITION FOR PREVENTING OR TREATING A PERIODONTAL DISEASE OR DISLOCATED TRAUMATIC TOOTH” (HYSENSBIO, priority 2020, published 2023):

What was measured:
periostin gene = assay: Periostin mRNA expression by real-time PCR in human periodontal ligament cells; assay type: cell-based; conditions: average of three experiments
Description: (§1) Specifically, all experiments were performed with the consent of the patient after obtaining approval from the Hospital's Institutional Review Board, a periodontal ligament tissue attached to the root of a wisdom tooth was isolated and cut into double-sided pieces, placed in a 60 mm dish, and covered with a cover slip, and then cultured in Dulbecco's degenerated Eagle's Medium.
(§2) Total RNA from human periodontal ligament cells was isolated using a TRIzol reagent. cDNA was synthesized using 2 μg of total RNA, 1 μl of reverse transcriptase, and 0.5 μg of oligo (dT). cDNA of synthesized human periodontal ligament cells was used for a real-time polymerase chain reaction using primers shown in Table 2 below. A real-time polymerase chain reaction was performed in ABI PRISM 7500 sequence detection system (Applied Biosystems) using SYBR GREEN PCR Master Mix (Takara, Japan). The real-time polymerase chain reaction was performed at 94° C., 1 min; 95° C., 15 sec-60° C., 34 sec was performed under the condition of repeating 40 cycles. Results were analyzed using a comparative cycle threshold (CT) method.

CAP gene = assay: CAP mRNA expression by real-time PCR in human periodontal ligament cells; assay type: cell-based; conditions: average of three experiments
Description: as §1, §2

BSP gene = assay: BSP mRNA expression by real-time PCR in human periodontal ligament cells; assay type: cell-based; conditions: average of three experiments
Description: as §1, §2

[1] = test system: three-wall periodontal defect; assay: Periodontium regeneration in periodontium damage animal model, histological evaluation; assay type: in vivo; conditions: beagle dog, collagen sponge containing 50 μg peptide, 3 months
Description: Four beagle dogs (12-16 kg; […]) were anesthetized by inhalation of Geloran, intravenously injected with Zoletil (5 mg/kg) and Xylazine (0.2-0.5 mg/kg), and then treated with Lidocaine (Lidocaine 2% with 1:80,000 epinephrine). The 4th premolar tooth and the 2nd molar tooth were extracted from the mandible of the beagle dog, and then the dog waited for healing for 3 months. After 3 months of healing, three-wall periodontal defect was induced on distal and mesial surfaces of a 1st molar tooth. Then, a periodontal damage of 4×4×4 mm was formed with the buccal and distal bones remaining around the tooth root, the root alveolar bone is securely removed, tooth root planing was performed using a curette, and then an incisor groove was formed using a ½ round bur. Next, an experimental group was transplanted with a collagen sponge (a peptide solution obtained by dissolving a peptide in physiological saline at a concentration of 1 μg/μl was prepared, 50 μl of a peptide solution was added to the EP tube, and then was soaked for 5 minutes to prepare the collagen sponge) including a 50 μl of peptide (SEQ ID NO: 16 of group 2) prepared in Example 1 at a defect region, After the defect, only a negative control (NC) without any treatment and a collagen sponge (prepared by soaking a collagen sponge in 50 μl of physiological saline for 5 minutes) was placed on the inner bone wall of a bone defect and a transplanted negative control (NC+Plug) was sacrificed 3 months later, and histological evaluation was performed. After 3 months, a beagle dog was sacrificed by administering an excessive amount (90-120 mg/kg) of pentobarbital. A tooth of the beagle dog was extracted, fixed with 10% formalin, and then calcium was removed by adding 5% formic acid, molded, and embedded in paraffin, to obtain a tissue section with a thickness of 5 μm. The obtained tissue section was stained with hematoxylin and eosin or collagen stained (Masson's Trichrome Staining) to confirm periodontal ligament regeneration and then analyzed using by an optical microscope equipped with a digital camera (LEICA ICC50 camera, Germany). After extraction of a 4th premolar tooth and a 2nd molar tooth from the mandibles of 4 beagle dogs, they waited for 3 months to heal, and After 3 months of healing, the 3-mural periodontal defect was induced in distal and mesial surfaces of a 1st molar tooth. Then, periodontium damage of 4×4×4 mm was formed with the buccal and distal bones remaining around the tooth root, the root alveolar bone is securely removed, tooth root planing was performed using a curette, and then an incisor groove was formed. Next, the experimental group transplanted a collagen sponge containing 50 μg of the peptide (SEQ ID NO: 16) of Example 1 to the defect region, and after the defect, a negative control (NC) without any treatment and control (NC+Plug) transplanted by placing only a collagen sponge on the inner bone wall of the bone defect was sacrificed 3 months later for histological evaluation.

[2] = Masson's trichrome stain, FIG. 6

## 1 (KYKQRKKNYK) [compound 1]
Periostin gene
  PERIOSTIN gene expression, relative mRNA expression level compared to the control, Average: 2.092
CAP gene
  CAP gene expression, relative mRNA expression level compared to the control, Average: 2.092
BSP gene
  BSP gene expression, relative mRNA expression level compared to the control, Average: 2.092

## 2 (KYKQRKRNYK) [compound 2]
Periostin gene
  PERIOSTIN gene expression, relative mRNA expression level compared to the control, Average: 2.361
CAP gene
  CAP gene expression, relative mRNA expression level compared to the control, Average: 2.361
BSP gene
  BSP gene expression, relative mRNA expression level compared to the control, Average: 2.361

## 3 (KYKQRRKNYK) [compound 3]
Periostin gene
  PERIOSTIN gene expression, relative mRNA expression level compared to the control, Average: 2.572
CAP gene
  CAP gene expression, relative mRNA expression level compared to the control, Average: 2.572
BSP gene
  BSP gene expression, relative mRNA expression level compared to the control, Average: 2.572

## 4 (KYKQRRRNYK) [compound 4]
Periostin gene
  PERIOSTIN gene expression, relative mRNA expression level compared to the control, Average: 2.702
CAP gene
  CAP gene expression, relative mRNA expression level compared to the control, Average: 2.702
BSP gene
  BSP gene expression, relative mRNA expression level compared to the control, Average: 2.702

## 5 (KYKQKKKNYK) [compound 5]
Periostin gene
  PERIOSTIN gene expression, relative mRNA expression level compared to the control, Average: 2.67
CAP gene
  CAP gene expression, relative mRNA expression level compared to the control, Average: 2.67
BSP gene
  BSP gene expression, relative mRNA expression level compared to the control, Average: 2.67

## 6 (KYKQKRKNYK) [compound 6]
Periostin gene
  PERIOSTIN gene expression, relative mRNA expression level compared to the control, Average: 2.705
CAP gene
  CAP gene expression, relative mRNA expression level compared to the control, Average: 2.705
BSP gene
  BSP gene expression, relative mRNA expression level compared to the control, Average: 2.705

## 7 (KYKQKKRNYK) [compound 7]
Periostin gene
  PERIOSTIN gene expression, relative mRNA expression level compared to the control, Average: 2.329
CAP gene
  CAP gene expression, relative mRNA expression level compared to the control, Average: 2.451
BSP gene
  BSP gene expression, relative mRNA expression level compared to the control, Average: 2.215

## 8 (KYKQKRRNYK) [compound 8]
Periostin gene
  PERIOSTIN gene expression, relative mRNA expression level compared to the control, Average: 2.021
CAP gene
  CAP gene expression, relative mRNA expression level compared to the control, Average: 2.021
BSP gene
  BSP gene expression, relative mRNA expression level compared to the control, Average: 2.021

## 9 (KYKQRKKSYK) [compound 9]
Periostin gene
  PERIOSTIN gene expression, relative mRNA expression level compared to the control, Average: 2.211
CAP gene
  CAP gene expression, relative mRNA expression level compared to the control, Average: 2.211
BSP gene
  BSP gene expression, relative mRNA expression level compared to the control, Average: 2.211

## 10 (KYKQRKRSYK) [compound 10]
Periostin gene
  PERIOSTIN gene expression, relative mRNA expression level compared to the control, Average: 2.811
CAP gene
  CAP gene expression, relative mRNA expression level compared to the control, Average: 2.811
BSP gene
  BSP gene expression, relative mRNA expression level compared to the control, Average: 2.811

## 11 (KYKQRRKSYK) [compound 11]
Periostin gene
  PERIOSTIN gene expression, relative mRNA expression level compared to the control, Average: 2.362
CAP gene
  CAP gene expression, relative mRNA expression level compared to the control, Average: 2.362
BSP gene
  BSP gene expression, relative mRNA expression level compared to the control, Average: 2.362

## 12 (KYKQRRRSYK) [compound 12]
Periostin gene
  PERIOSTIN gene expression, relative mRNA expression level compared to the control, Average: 2.211
CAP gene
  CAP gene expression, relative mRNA expression level compared to the control, Average: 2.211
BSP gene
  BSP gene expression, relative mRNA expression level compared to the control, Average: 2.211

## 13 (KYKQKKKSYK) [compound 13]
Periostin gene
  PERIOSTIN gene expression, relative mRNA expression level compared to the control, Average: 2.525
CAP gene
  CAP gene expression, relative mRNA expression level compared to the control, Average: 2.525
BSP gene
  BSP gene expression, relative mRNA expression level compared to the control, Average: 2.525

## 14 (KYKQKRKSYK) [compound 14]
Periostin gene
  PERIOSTIN gene expression, relative mRNA expression level compared to the control, Average: 2.836
CAP gene
  CAP gene expression, relative mRNA expression level compared to the control, Average: 2.836
BSP gene
  BSP gene expression, relative mRNA expression level compared to the control, Average: 2.836

## 15 (KYKQKKRSYK) [compound 15]
Periostin gene
  PERIOSTIN gene expression, relative mRNA expression level compared to the control, Average: 2.620
CAP gene
  CAP gene expression, relative mRNA expression level compared to the control, Average: 2.620
BSP gene
  BSP gene expression, relative mRNA expression level compared to the control, Average: 2.620

## 16 (KYKQKRRSYK) [compound 16]
Periostin gene
  PERIOSTIN gene expression, relative mRNA expression level compared to the control, Average: 2.403
CAP gene
  CAP gene expression, relative mRNA expression level compared to the control, Average: 2.467
BSP gene
  BSP gene expression, relative mRNA expression level compared to the control, Average: 2.606

## KYKQKRRSYK [SEQ ID NO: 16, Group 2 peptide, 8th amino acid is serine (S)]
[1]; [2]
  incorporation of new periodontal ligament fiber bundle into alveolar bone and cementum: A new periodontal ligament fiber bundle was vertically incorporated in the newly formed alveolar bone and cementum
  new cementum-like tissue formation: new cementum-like tissue was observed along a tooth root surface
  new periodontal ligament-like tissue formation: new periodontal ligament-like tissue formation was also observed
[1]; hematoxylin/eosin, FIG. 5
  incorporation of new periodontal ligament into alveolar bone and cementum: New periodontal ligament was incorporated in the newly formed alveolar bone and cementum
  new cementum-like tissue formation: new cementum-like tissue was observed along a tooth root surface
  new periodontal ligament-like tissue formation: new periodontal ligament-like tissue formation was also observed
